According to patent US20240410831A1, “Multi-Mode Zinc-Selective Emission-Ratiometric Fluorescent Probes for Biological Application” (Georgia Tech Research Corporation, priority 2023, published 2024):

Legend:
[1] = Fluorescence quantum yield measurement; format: physicochemical; conditions: liposome solution, pH 7.0 PIPES
Experimental: The quantum yields of the free Formula I, Formula II, and/or a derivative thereof (e.g., for example probe 8) was determined using quinine sulfate as a reference (Df=0.546 in 1.0 N H2SO4). The quantum yield was derived from a 5-point measurement in Chelex®-treated PIPES buffer containing 100 μM of 4:1 DMPC:DMPG liposomes (pH 7.0, 10 mM PIPES, 0.1 M KCl, 25° C.). For the free compound 1 (e.g., for example probe 8 in FIG. 4H), the solutions were supplemented with 20 μM of EDTA (from a 3.0 mM stock solution in DI H2O). The quantum yield of the probe 8-Zn(II) complex was independently determined under the same conditions in the presence of 1.1 molar equivalent of Zn(OTf)2. The quantum yield of the Zn(II) complex was confirmed with fluorescence quantum yield ratio. The fluorescence quantum yields were calculated as an average of two independent measurements.

[2] = Metal-ion selectivity measurement (emission-ratiometric response); format: physicochemical; conditions: liposomes, pH 7.0
Experimental: FIG. 5C illustrates an exemplary table providing exemplary photophysical properties of Formula I, Formula II, and/or a derivative thereof (e.g., for example probe 8) and its Zn(II)-probe complex in PIPES buffer containing 100 μM of 4:1 DMPC:DMPG liposomes (pH 7.0, 10 mM PIPES, 0.1 M KCl, 25° C.). The fluorescence response of the probe 8 (10 PM) was measured in the presence of 100 μM 4:1 DMPC:DMPG liposomes (pH 7.0, 10 mM PIPES, 0.1 M KCl, 25° C.) and an excess of selected biologically relevant divalent metal ions (FIG. 5A). […]
A solution of Formula I, Formula II, and/or a derivative thereof (e.g., for example probe 8) (10 μM) in Chelex®-PIPES buffer (10 mM, 0.1 M KCl, pH 7.0, 25° C.) containing 100 μM of liposomes (4:1 mixture of DMPC and DMPG) prepared in a quartz cuvette with a 1-cm pathlength. A fluorescence spectrum was acquired over the spectral window of 415-700 nm with excitation at 405 nm. Under magnetic stirring, the solution was supplemented with each divalent metal cation (8.0 μM, which corresponds to 80% fractional saturation of the probe, or 2.0 mM Ca(II) and Mg(II) ions), and a fluorescence spectrum was immediately acquired. […] The fluorescence spectrum was acquired after 10 min equilibration to ensure complete formation of the probe 8 Zn(II)-complex. […]

[3] = tested on: live mouse fibroblast 3T3 cells; assay: Ratiometric imaging of labile Zn(II) by laser confocal fluorescence microscopy (excitation at 405 nm); format: cell-based; conditions: for average fluorescence ratio R (BP2/BP1): confocal 405 nm
Experimental: With reference to FIG. 7B, ratiometric imaging of labile Zn(II) pools in live mouse fibroblast 3T3 cells with Formula I and/or Formula IA (e.g., for example probe 8) by TPEM (excitation at 405 nm). (A) of FIG. 7B Left: Intensities acquired with 520 nm-600 nm (BP2) and 440 nm-495 nm (BP1) bandpass filters respectively. Right: Intensity ratio imagines with R=BP2/BP1. (B) of FIG. 7B Left: Ratio images (BP2/BP1) before (prior to t=5 min) and after the addition of 50 μM ZnSO4 and 5.0 μM pyrithione. Addition of TPEN at t=15 min resulted the reversal of the initial fluorescence ratio change. (C) of FIG. 7B: Mean fluorescence ratio of the cytoplasmic region averaged over 10 cells (P values calculated for n=10 using a two-tailed test). (D) of FIG. 7B: Time course of the average ratio change for mean fluorescence ratio in the cytosol averaged over 10 cells.
To investigate whether Formula I, Formula II, and/or a derivative thereof (e.g., for example probe 8) may also be employed with one-photon excitation at 405 nm, the imagine experiment was repeated with a conventional confocal fluorescence microscope equipped with a 405 nm laser as the excitation source. […] The averaged fluorescence ratio indicated a uniform fractional saturation with an average ratio of R=0.57±0.04. […] The difference in fluorescence ratios is likely due to differences in the absorption cross sections for linear vs. non-linear excitation. In principle, the ratio response could be further tuned by adjusting the sensitivity of the bandpass detectors.
In various embodiments, mouse fibroblast (3T3) cells were grown on poly-L-lysine treated glass bottom culture dishes (MatTek) to 90% confluency in DMEM growth media supplemented with 10% bovine calf serum, and 1% penicillin-streptomycin. Before imaging, the media was replaced with pre-warmed colorless serum-free DMEM (1% penicillin-streptomycin, and 1% sodium pyruvate) containing 1.0 μM of probe 8. The cells were incubated at 37° C. under an atmosphere of humidified air containing 5% CO2 for 15 mins. The incubation solution was replaced with prewarmed colorless serum free DMEM. Images were acquired at 37° C., 8% humidity, and 5% CO2 using a Zeiss LSM NLO 710 microscope equipped with a femtosecond pulsed Ti:sapphire laser and a blue 405 nm laser. Scanning fluorescence micrographs were acquired with excitation at 405 nm or 750 nm and the emission was simultaneously collected with bandpass ranges of 495-440 nm (BP1) and 600-520 nm (BP2). Image J was used to evaluate the change in fluorescence emission ratio over time as previously described. The emission ratio for each region of interest was averaged at each time point.
TPEN solid was fully dissolved in anhydrous DMSO to a concentration of 3.0 mM. […]

## COc1ccc2c(c1)C(C)(C)c1nc(-c3cccc(CN(Cc4ncccn4)Cc4ncccn4)n3)sc1-2 [probe 8]
[1]; Zn(II)-probe complex
  quantum yield: 78%
[1]; free probe
  quantum yield: 72%
[2]; 2.0 mM of either metal ion
  fluorescence response to Ca(II) and Mg(II): Neither Ca(II) nor Mg(II) resulted in any significant fluorescence change
[2]; 0.8 molar equivalents of metal, 10 μM probe
  fluorescence response to divalent transition metals: quenching of the fluorescence
[3]; 3T3 cells, confocal
  cellular uptake: readily internalized
[3]; after TPEN
  average fluorescence ratio R (BP2/BP1): 0.56±0.04
[3]; after Zn(II) and ionophore pyrithione
  average fluorescence ratio R (BP2/BP1): 1.04±0.12
[3]; basal
  average fluorescence ratio R (BP2/BP1): 0.57±0.04
